Laboratory results taken from PubChem BioAssay AID489023 (Sanford-Burnham Center for Chemical Genomics, 2010).
Calls of active or inactive are those of the source. The rule behind the calls is not given here.

The compounds below were run on 697B cells, BCR-induced NF-kB luciferase reporter luminescence (assay: B-cell receptor NF-kB reporter inhibition – 697B cells, luciferase luminescence, dose response (AID 489023)).
For `COc1ccc(/C=C/c2ccccc2)cc1[C@H]1[C@H]2C=CC[C@@H](C)[C@@H]2C(=O)N1Cc1ccccc1`, the IC50 was > 80 µM (inactive). In the case of `CC(C)Oc1ccc(C(=O)Nc2ccc(N(C)C)cc2)cc1`, the IC50 is reported as 61.3 µM (inactive). With `CCn1c(=O)cc(SCC(=O)N2CCN(C(=O)c3ccco3)CC2)c2ccccc21` the IC50 was > 80 µM (inactive). In the case of `CCC(CC)C(=O)Nc1ccc(Sc2ccc([N+](=O)[O-])cc2)cc1`, the IC50 is reported as 32.2 µM (inactive). With `COc1ccccc1/C=C1/SC(=S)N(CCC(=O)Nc2cccnc2)C1=O` the IC50 was 9.65 µM. For `C=CCn1c(O)c(C(C)=NC(C)c2ccccc2)c(=O)[nH]c1=O` (centres undefined), the IC50 was > 80 µM (inactive). In the case of `Fc1ccc(C2=Nn3c(nnc3-c3n[nH]c4c3CCC4)SC2)cc1`, the IC50 is reported as 34.6 µM (inactive). With `Cn1c(=NC(=O)CCl)sc2ccccc21` the IC50 was 0.59 µM. `C/C(=N\Nc1nc(Nc2ccccc2)nc(N2CCOCC2)n1)c1cccs1` showed an IC50 of 8.71 µM. `Cc1ccc(/C=C2\SC(=S)N(CCCC(=O)Nc3cccnc3)C2=O)cc1` showed an IC50 of 0.25 µM. `C=CCOc1ccc(NC(=O)C(=O)NCCCn2ccnc2)cc1` was tested, and the IC50 was > 80 µM (inactive). For `Cc1ccc(S(=O)(=O)Nc2ccc3c(c2)n(C)c(=O)n3C)cc1`, the IC50 was > 80 µM (inactive). In the case of `CC(C)(C)c1ccc(-c2noc(CCC(=O)NCc3ccco3)n2)cc1`, the IC50 is reported as < 0.16 µM. In the case of `COc1cc(C2C(C#N)=C(N)Oc3cc(N)ccc32)cc(OC)c1OC` (centres undefined), the IC50 is reported as > 80 µM (inactive). In the case of `CCOc1ccc(-c2nnc(SCC(=O)NC3CC3)o2)cc1`, the IC50 is reported as 62 µM (inactive). For `CCC(=O)N(C1=C(NC)C(=O)c2ccccc2C1=O)C(C)C`, the IC50 was > 80 µM (inactive). For `Cc1ccc(/C=C2\SC(=S)N(CCCC(=O)Nc3ccccn3)C2=O)cc1`, the IC50 was 0.37 µM. For `Cc1ccc(C)c(OCc2ccc(C(=O)NN)o2)c1`, the IC50 was > 80 µM (inactive). Compound `COc1ccc(-c2nc(CSCC(=O)NCc3ccco3)c(C)o2)cc1` has an IC50 of 9.47 µM. `COc1ccc(/C=C2\SC(=S)N(CCCC(=O)Nc3ccc(O)cc3)C2=O)cc1` was tested, and the IC50 was 1.27 µM. `CCCCCOc1ccc(NC(=O)C(=O)NCCCn2ccnc2)cc1` was tested, and the IC50 was 4.78 µM. Compound `O=C(CN1C(=O)c2ccccc2S1(=O)=O)c1ccc(Cl)cc1Cl` has an IC50 of 0.44 µM. For `COc1cccc(Cn2nnc(C(=O)Nc3cc(Cl)ccc3OC)c2N)c1`, the IC50 was > 80 µM (inactive). `O=C(CCCN1C(=O)/C(=C/c2ccccc2Cl)SC1=S)NNC(=O)c1ccc(Cl)cc1Cl` was tested, and the IC50 was 3.1 µM. With `COc1ccc(-n2ncc3c(N4CCC(C(N)=O)CC4)ncnc32)cc1` the IC50 was > 80 µM (inactive). With `Cc1cccn2c(=O)c3cc(C(=O)NC4CCCCC4)c(=N)n(CCN4CCOCC4)c3nc12` the IC50 was > 80 µM (inactive). `O=C(CCCN1C(=O)/C(=C/c2ccccc2Cl)SC1=S)NNC(=O)c1ccncc1` was tested, and the IC50 was 25.7 µM (inactive). `Cc1ccc(-c2nn3c(C)nnc3c3ccccc23)cc1S(=O)(=O)NCc1ccco1` was tested, and the IC50 was 29.3 µM (inactive). With `O=C(CN1C(=O)c2ccccc2S1(=O)=O)c1ccccc1Cl` the IC50 was 1.13 µM. `CC1=CC(C)(C)Nc2ccc(OC(=O)c3ccco3)cc21` gave an IC50 of 8.24 µM. `CCOC(=O)C1CCN(c2ncnc3c2cnn3-c2ccc(Cl)cc2)CC1` showed an IC50 of 0.82 µM. `CC1CCC/C=C/C2CC(O)CC2C(O)/C=C/C(=O)O1` (centres undefined) was tested, and the IC50 was > 80 µM (inactive). With `N#Cc1ccccc1COc1ccc(/C=C/C(=O)O)cc1` the IC50 was 14.9 µM. For `Cc1ccc(-c2nsc3c(N4CCC(C(N)=O)CC4)ncnc23)cc1`, the IC50 was 6.33 µM. In the case of `CC(=C\c1ccccc1)/C=C1/SC(=O)N(CCCC(=O)Nc2ccc(C(=O)O)cc2)C1=O`, the IC50 is reported as 0.64 µM. `Cn1c(=O)c2c(SCC(=O)Nc3ccccc3F)nc(-c3ccccc3F)nc2n(C)c1=O` was tested, and the IC50 was 21.8 µM (inactive). `CN(C)C(=O)CCc1nc(-c2ccc(C(C)(C)C)cc2)no1` was tested, and the IC50 was 18.8 µM. `COc1ccc(Cc2nc(-c3ccc(NC(=O)c4cccnc4)cc3)no2)cc1` was tested, and the IC50 was > 80 µM (inactive). In the case of `O=C(CCCN1C(=O)S/C(=C\c2ccccc2)C1=O)NNC(=O)c1ccccc1O`, the IC50 is reported as 1.64 µM. `Cc1cc(C)cc(NC(=O)c2nnn(Cc3cc(C)ccc3C)c2N)c1` was tested, and the IC50 was > 80 µM (inactive). For `O=S(=O)(c1cnc(Cl)c(Cl)c1)N1CCCc2ccccc21`, the IC50 was 33.8 µM (inactive). With `CCOc1ccc(-c2cc(CCCC(=O)NCc3ccc(C)cc3)no2)cc1` the IC50 was > 80 µM (inactive). Work on `COc1cccc(N2CCN(c3ncnc4c3[nH]c3ccc(F)cc34)CC2C)c1` (centres undefined) yielded an IC50 of 0.79 µM. `COc1ccc(OC)c(C2CC(=O)Nc3cc(OC)c(OC)c(OC)c32)c1` (centres undefined) was tested, and the IC50 was > 80 µM (inactive). For `CC(=C/c1ccco1)/C=N/NC(=O)CSc1nnc(SCc2ccc(C)cc2)s1`, the IC50 was > 80 µM (inactive). `C#CCN(Cc1ccccc1)S(=O)(=O)C=C` was tested, and the IC50 was 21.3 µM (inactive). `N#CC1=C(N)Oc2cc(Nc3ccccc3)ccc2C1c1ccncc1` (centres undefined) was tested, and the IC50 was 8.6 µM. `Cc1ccc(C(=O)C[n+]2cc(-c3ccc(C)cc3)n3c2CCCCC3)cc1` was tested, and the IC50 was 38.9 µM (inactive). With `CCOc1cc(/C=N\Nc2nc(Nc3ccccc3)nc(N3CCOCC3)n2)ccc1OC(=O)c1ccco1` the IC50 was 1.25 µM. Compound `O=C(c1cc2nc(-c3ccccc3)cc(-c3ccccc3)n2n1)N1CCN(C(=O)c2ccco2)CC1` has an IC50 of 8.73 µM. `COc1ccc(C(C(=O)NC2CCCCC2)N(C(=O)CCl)c2ccc(Cl)cc2)cc1` (centres undefined) showed an IC50 of 0.85 µM. `O=c1cccc2c1c1cc[nH]c3ccc(=O)n2c31` gave an IC50 of 2.1 µM. For `Cc1ccc(-c2cn(-c3ccccc3)c3[n+]2CCCS3)cc1`, the IC50 was > 80 µM (inactive). `CCOc1ccc(-c2noc(CCC(=O)O)n2)cc1` gave an IC50 of 4.12 µM. In the case of `Cc1[nH]c2ccccc2c1/C=N/Nc1nc(Nc2ccc(F)cc2)nc(N2CCOCC2)n1`, the IC50 is reported as 1.22 µM. Compound `O=C(N/N=C/c1cccnc1)c1cc(-c2ccccc2OCc2ccccc2)n[nH]1` has an IC50 of 6.82 µM. In the case of `Cc1ccc(C(=O)CSc2nnc(COc3cccc(C)c3)o2)cc1`, the IC50 is reported as > 80 µM (inactive). `O=C(NNC(=O)c1ccccc1O)c1ccc(Cl)c(S(=O)(=O)N2CCc3ccccc32)c1` was tested, and the IC50 was > 80 µM (inactive). `COc1ccc(C(=O)N/N=C/c2ccc(OC)c(CN3CCCc4ccccc43)c2)cc1` was tested, and the IC50 was > 80 µM (inactive). In the case of `O=C(CCCN1C(=O)S/C(=C/C=C/c2ccccc2)C1=O)Nc1ccc(C(=O)O)cc1`, the IC50 is reported as > 80 µM (inactive). `Cc1nnc2c3ccccc3c(-c3ccccc3)nn12` was tested, and the IC50 was > 80 µM (inactive). Work on `Cc1nc([N+](=O)[O-])c(Sc2nc3ccc([N+](=O)[O-])cc3[nH]2)n1Cc1ccccc1` yielded an IC50 of 8.74 µM. `CNC(=O)CSc1nc2nn(-c3ccccc3)c(=O)c-2c2n1CCCCC2` was tested, and the IC50 was 76.9 µM (inactive). In the case of `COc1ccc(/C=C2\SC(=S)N(CCC(=O)Nc3ccc(C(=O)O)cc3)C2=O)cc1OC`, the IC50 is reported as > 80 µM (inactive). In the case of `C[C@H]1CCC/C=C/C2C[C@H](O)CC2[C@H](O)/C=C/C(=O)O1` (some centres undefined), the IC50 is reported as > 80 µM (inactive). Compound `NNC(=O)COc1ccc(-c2nccc(-c3ccc(F)cc3)n2)cc1` has an IC50 of 4.92 µM. With `CCc1sc(C(=O)Nc2cccc(-n3cnnn3)c2)cc1C` the IC50 was > 80 µM (inactive). For `CCOc1ccc(-c2cc(CCCC(=O)NCCCOC)no2)cc1`, the IC50 was > 80 µM (inactive). Work on `CCc1ccc(/C=C2/SC(=S)N(CCC(=O)Nc3cccnc3)C2=O)cc1` yielded an IC50 of 0.85 µM. With `COc1ccccc1/C=C1\SC(=S)N(CCC(=O)NC2=NCCS2)C1=O` the IC50 was > 80 µM (inactive). For `CCn1c(=O)cc(OCC(=O)Nc2ccc(OC)c(OC)c2)c2ccccc21`, the IC50 was > 80 µM (inactive). In the case of `COc1ccc(-c2ccc(N(C)C)cc2)cc1[C@H]1[C@H]2C=CC[C@@H](C)[C@@H]2C(=O)N1Cc1ccccc1`, the IC50 is reported as > 80 µM (inactive). `Cc1ccc(-n2c(-c3ccccc3)c[n+]3c2CCc2ccccc2-3)c(C)c1` was tested, and the IC50 was 56.7 µM (inactive). `Cc1ccccc1-c1cc(C(=O)Nc2sc(C(=O)OC(C)C)c(C)c2C#N)c2ccccc2n1` was tested, and the IC50 was 42.8 µM (inactive). `CCn1c(=O)cc(SCC(=O)N2CCN(C)CC2)c2ccccc21` was tested, and the IC50 was > 80 µM (inactive). In the case of `O=C(CCCN1C(=O)/C(=C/c2ccccc2Cl)SC1=S)NNC(=O)c1ccc(Cl)cc1`, the IC50 is reported as 30.7 µM (inactive). `O=C(Nc1ccccc1C(=O)Nc1nnc(C(F)(F)F)s1)c1ccccc1` was tested, and the IC50 was > 80 µM (inactive). For `O=C(Nc1nc2nc(-c3ccccc3)cc(-c3ccccc3)n2n1)c1ccco1`, the IC50 was 48.3 µM (inactive). `COc1ccc(OCc2cccc(C(=O)NN)c2)cc1` showed an IC50 of 2.43 µM. `CCN(CC)c1ccc(/C=C2/C(=O)ON=C2C)cc1` was tested, and the IC50 was 21.2 µM (inactive). Work on `CC(C)c1ccc(/C=C2\SC(=S)N(CCC(=O)N3CCCCC3CCO)C2=O)cc1` (centres undefined) yielded an IC50 of 1.63 µM. For `COc1ccccc1/C=C1\SC(=S)N(CCC(=O)Nc2cc(C)on2)C1=O`, the IC50 was 36.8 µM (inactive). Work on `Cc1[nH]c2ccccc2c1/C=N/Nc1nc(Nc2ccccc2)nc(N2CCOCC2)n1` yielded an IC50 of 3.35 µM. For `O=C(Nc1nc(-c2ccccc2)cs1)c1ccccc1NS(=O)(=O)c1ccc(F)cc1`, the IC50 was 21.7 µM (inactive). `CCOCCCNc1nc2c(C)cccn2c(=O)c1/C=C1\SC(=S)N(C(C)CC)C1=O` (centres undefined) was tested, and the IC50 was 36.3 µM (inactive). `C[C@H]1CCC/C=C/[C@@H]2C[C@H](O)C[C@H]2[C@H](O)/C=C/C(=O)O1` was tested, and the IC50 was > 80 µM (inactive). `COc1cccc(/C=C2/SC(=S)N(CCCC(=O)Nc3ccc(O)cc3)C2=O)c1` gave an IC50 of 1.49 µM. Compound `CCc1ccc(/C=C2/SC(=S)N(CCC(=O)Nc3ccc(C(=O)O)cc3)C2=O)cc1` has an IC50 of 4.07 µM. `N=c1ccn(Cc2c(Cl)cccc2Cl)cc1` was tested, and the IC50 was > 80 µM (inactive). `Cc1ccc(NC(=O)O/N=C/c2c(C)nn(C(C)(C)C)c2C)cc1Cl` was tested, and the IC50 was < 0.16 µM. Compound `CCOc1ccc(-n2c(SCC(=O)Nc3ccc4c(c3)OCCO4)nc3c(c2=O)SCC3)cc1` has an IC50 of 11.7 µM. `CCN(CC)CCOC(=O)c1ccc(NC(=O)CCCN2C(=O)S/C(=C/c3ccc(OC)cc3)C2=S)cc1` showed an IC50 of 2.11 µM. `Cc1nn(-c2ccc(N3CCCCC3)nn2)c(C)c1CCC(=O)Nc1ccccc1F` was tested, and the IC50 was > 80 µM (inactive). With `CCOc1ccc(S(=O)(=O)NCc2ccncc2)cc1NC(=O)c1ccccc1` the IC50 was > 80 µM (inactive). `N=c1c2c(n(Cc3ccc(Cl)c(Cl)c3)c3c1CCC3)CCCC2` was tested, and the IC50 was 31.1 µM (inactive). `CC1=CC(C)(C)Nc2ccc(OC(=O)CN3C(=O)c4ccccc4C3=O)cc21` showed an IC50 of 4.73 µM. With `CCN(CC(=O)Nc1c(F)cccc1F)C(=O)c1cc([N+](=O)[O-])ccc1N1CCCCC1` the IC50 was 13.6 µM. `COc1ccc2nc(Sc3c([N+](=O)[O-])nc(C)n3Cc3ccccc3)[nH]c2c1` showed an IC50 of 18.2 µM. In the case of `Cc1ccc(-c2nc(C(=O)NCC3CCCO3)cc3c2[nH]c2ccccc23)cc1` (centres undefined), the IC50 is reported as 12.8 µM.
